Data from patent publication US7867492B2, “Compounds for hedgehog pathway blockade in proliferative disorders, including hematopoietic malignancies” (The John Hopkins University, priority 2007, dated 2011).

Legend:
K-ras pathway = format: cell-based
Hh pathway [1] = format: cell-based
Hh pathway [2] = test: ATO combined with cyclopamine, 8×Gli-luciferase reporter in 3T3 cells; format: cell-based; conditions: cyclopamine at fixed concentrations of […] and 0.125 μM, presence of ShhN
Gli = test: Hh reporter in 3T3 cells cotransfected with SmoA1, Gli2 or Gli1; format: cell-based; conditions: presence or absence of ShhN
[3] = system: medulloblastoma from Ptch+/−p53−/− mice; test: Hh activity-induced medulloblastoma allografts in athymic nude mice; format: in vivo; conditions: daily intraperitoneal injection
Protocol: FIG. 7 is a pictorial and a graphical diagram showing that ATO inhibits growth of Hh activity-induced medulloblastoma allografts in nude mice. Primary medulloblastoma from Ptch+/−p53−/− mice were dissected and injected into athymic nude mice. The mice were injected daily with either control PBS or 3 different doses of ATO intraperitoneally.
The activity of ATO was then tested in vivo in a well-established model of a tumor that is dependent on Hh pathway activity for growth. In this model, primary medulloblastoma cells from Ptch+/−p53−/− mice were dissected and injected into athymic nude mice. The mice were then injected daily with either control PBS or 3 different doses of ATO intra-peritoneally.

Wnt pathway = test: Wnt reporter (7×TCF/LEF-luciferase) in 3T3 cells; format: cell-based; conditions: increasing concentrations, presence or absence of Wnt3a-conditioned medium
Description: 3T3 cells were transfected with a Wnt reporter (7×TCF/LEF-luciferase) and treated with increasing concentrations of ATO in the presence or absence of Wnt3a-conditioned medium.
To further assess the specificity of the arsenic effect on Hedgehog pathway signaling, 3T3 cells were transfected with a Wnt reporter (7×TCF/LEF-luciferase) and treated with increasing concentrations of ATO in the presence or absence of Wnt3a-conditioned medium.

Compound	K-ras pathway activity (SRE-luciferase reporter) (K-ras pathway)	Hh signaling (reporter) (Hh pathway [1])	Effect of ATO on Hh pathway when combined with cyclopamine (Hh pathway [2])	Hh reporter activity induced by SmoA1, Gli2 or Gli1 over-expression (Gli)	Tumor allograft growth ([3]; 3 different doses, athymic nude mice)	Tumor allograft growth at the highest concentration tested ([3]; highest concentration tested)	Wnt pathway activity (7×TCF/LEF-luciferase reporter) (Wnt pathway)	Hh pathway activity (8×Gli-luciferase reporter) (Hh pathway [1]; NIH3T3 cells, increasing concentrations, presence or absence of ShhN-conditioned medium)
O=[As][O-].[Na+] [NaAsO2]	did not inhibit, and in fact stimulated the K-ras pathway	inhibits Hh signaling						
arsenic trioxide [ATO]			significantly improved effect of ATO at lower concentrations	dramatically inhibited reporter activity	suppressed tumor allograft growth in a concentration dependent manner	complete growth suppression	does not inhibit the Wnt pathway	inhibits Hh pathway in a dose-dependent manner
